Patent US12195427B2, “MASP-2 inhibitors and methods of use” (priority 2018, dated 2025)

Legend:
MASP-2 CCP2-SP = MASP-2 CCP2-SP (Homo sapiens (Human), UniProt O00187); experiment: MASP-2 co-crystallization, X-ray crystallography and structure analysis (H-bonds, van der Waals contacts); set-up: van der Waals contact distance, MASP-2 HIS 483 atom CD2 / van der Waals contact distance, MASP-2 HIS 483 atom NE2 / van der Waals contact distance, SER 654 C to compound atom / van der Waals contact distance, SER 654 O to compound atom / van der Waals contact distance, TRP 655 C to compound atom / van der Waals contact distance, MASP-2 GLY 528 atom CA / van der Waals contact distance TRP 655 atom CZ3 / van der Waals contact distance TRP 655 atom N / van der Waals contact distance TRP 655 atom CE3 / van der Waals contact distance GLY 656 atom C / van der Waals contact distance GLY 656 atom CA / van der Waals contact distance GLY 656 atom O / van der Waals contact distance, MASP-2 TYR 607 atom CD1 / van der Waals contact distance, MASP-2 PRO 606 atom O / d(C3,CA1) / d(CA1,N1)2 / d(H4,O1) / d(H4,O2) / d(O1,O2) / d(CA1,O2) / d(CA6,O1) / d(CA6,O2) / d(CA1,C5) / d(O2,H3) / d(N2,C2) / d(CA5,N2) / d(N2,C4) / d(N2,C6) / d(N2,CA3) / d(N2,O3) / d(O4,H2): unit not given beside the values; conditions: for H-bond distance to MASP-2 GLY 656 atom N: GLY 656 N; for H-bond distance to MASP-2 GLY 656 atom O: GLY 656 O; for H-bond distance to MASP-2 SER 654 atom O: SER 654 O; for van der Waals contact distance, MASP-2 GLY 528 atom CA: Table A2-2; for van der Waals contact distance, MASP-2 TYR 607 atom CD1: Table A2-4; for van der Waals contact distance TRP 655 atom CE3 / van der Waals contact distance TRP 655 atom CZ3: Table A2-13; for van der Waals contact distance TRP 655 atom CE3: MASP-2 TRP 655 CE3, compound atom in line below; for van der Waals contact distance TRP 655 atom CZ3: MASP-2 TRP 655 CZ3; for Ligand-pharmacophore element distance, pharmacophore element C2 / Ligand-pharmacophore element distance, pharmacophore element C3 / Ligand-pharmacophore element distance, pharmacophore element C4 / Ligand-pharmacophore element distance, pharmacophore element C5 / Ligand-pharmacophore element distance, pharmacophore element C6 / Ligand-pharmacophore element distance, pharmacophore element C7 / Ligand-pharmacophore element distance, pharmacophore element CA1 / Ligand-pharmacophore element distance, pharmacophore element CA2 / Ligand-pharmacophore element distance, pharmacophore element CA3 / Ligand-pharmacophore element distance, pharmacophore element CA4 / Ligand-pharmacophore element distance, pharmacophore element CA5 / Ligand-pharmacophore element distance, pharmacophore element CA6: Table A4-1; for d(N2,CA2) / d(O2,H3) / d(O2,N2): Table A5-2 pharmacophore distance, S3/S4 region; for a(O1, O2, H3) / a(O1, O2, N2) / a(O2, N2, CA2): Table A6-2 pharmacophore angle; for Pharmacophore torsion angle a(O1, O2, N2, CA2): Table A7-2;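 as to Ligand-pharmacophore element distance, pharmacophore element C2: distance from averaged pharmacophore element to bound ligand; missing value means element absent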;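 as to Ligand-pharmacophore element distance, pharmacophore element C3: distance from averaged pharmacophore element to bound ligand; missing value means element absent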;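 as to Ligand-pharmacophore element distance, pharmacophore element C4: distance from averaged pharmacophore element to bound ligand; missing value means element absent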;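 as to Ligand-pharmacophore element distance, pharmacophore element C5: distance from averaged pharmacophore element to bound ligand; missing value means element absent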
Method in brief: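 Inhibitor complexes were obtained by soaking crystals of E. coli-expressed human MASP-2 CCP2-SP constructs, then flash-cooling in liquid nitrogen. Structures solved by molecular replacement (1Q3X search model) from synchrotron diffraction; where several poses existed, only one was analyzed, and nonbonded contacts listed can include H-bonds.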

Lectin Pathway = Lectin Pathway Activation Assay in Human Serum (mannan-coated ELISA, C3c detection); type: biochemical; conditions: 1% human serum
Protocol: Microtiter ELISA plate was coated with mannan from Saccharomyces cerevisiae (Sigma-Aldrich, M7504) for overnight at 4° C. in coating buffer [15 mM Na2CO3, 35 mM NaHCO3].

[1] = Table A5-1 pharmacophore: distance between elements, S2/S1 region
[2] = Table A7-1, between pharmacophore elements of the bound compound
[3] = between pharmacophore elements of the bound compound

Sequence of MASP-2 CCP2-SP (O00187 445-686): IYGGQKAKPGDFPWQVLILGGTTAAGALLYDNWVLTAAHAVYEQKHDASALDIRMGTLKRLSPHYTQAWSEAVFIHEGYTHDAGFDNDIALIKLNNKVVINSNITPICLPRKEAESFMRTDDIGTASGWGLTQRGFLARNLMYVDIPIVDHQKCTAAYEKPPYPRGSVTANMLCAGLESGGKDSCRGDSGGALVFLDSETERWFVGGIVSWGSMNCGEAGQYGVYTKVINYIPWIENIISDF
Sequence of MASP-2 CCP2-SP (O00187 364-432 partner): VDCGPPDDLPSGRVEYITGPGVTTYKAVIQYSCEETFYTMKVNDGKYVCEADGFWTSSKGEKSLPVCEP

Cc1cc(Cl)cc(CNC(=O)[C@H](C)NC(=O)[C@H]2C[C@H](Cc3ccccc3)CN2)c1O [compound 1307, (2R,4S)-4-Benzyl-N—((S)-1-((5-chloro-2-hydroxy-3-methylbenzyl)amino)-1-oxopropan-2-yl)pyrrolidine-2-carboxamide]
H-bond distance to MASP-2 GLY 656 atom N (MASP-2 CCP2-SP; Table A1 (H-Bonds)): 2.95 | H-bond distance to MASP-2 GLY 656 atom O (MASP-2 CCP2-SP; Table A1 (H-Bonds)): 2.86 | H-bond distance to MASP-2 SER 654 atom O (MASP-2 CCP2-SP; Table A1 (H-Bonds)): 2.91 | van der Waals contact distance, MASP-2 HIS 483 atom NE2 (MASP-2 CCP2-SP; Table A2-1): 3.5 | van der Waals contact distance, MASP-2 GLY 528 atom CA (MASP-2 CCP2-SP): 3.75 | van der Waals contact distance, MASP-2 PHE 529 atom CD2 (MASP-2 CCP2-SP; Table A2-3): 3.69 | van der Waals contact distance, MASP-2 PHE 529 atom CZ (MASP-2 CCP2-SP; Table A2-3): 3.86 | van der Waals contact distance, MASP-2 TYR 607 atom CD1 (MASP-2 CCP2-SP): 3.83 | van der Waals contact distance, SER 654 C to compound atom (MASP-2 CCP2-SP; Table A2-11): 3.79 | van der Waals contact distance, VAL 653 CG1 to compound atom (MASP-2 CCP2-SP; Table A2-11): 3.47 | van der Waals contact distance TRP 655 atom CE3 (MASP-2 CCP2-SP): 3.75 | van der Waals contact distance TRP 655 atom CZ3 (MASP-2 CCP2-SP): 3.76 | Ligand-pharmacophore element distance, pharmacophore element C2 (MASP-2 CCP2-SP): 0 | Ligand-pharmacophore element distance, pharmacophore element C3 (MASP-2 CCP2-SP): 0 | Ligand-pharmacophore element distance, pharmacophore element C4 (MASP-2 CCP2-SP): 0 | Ligand-pharmacophore element distance, pharmacophore element C5 (MASP-2 CCP2-SP): 0.37 | Ligand-pharmacophore element distance, pharmacophore element C6 (MASP-2 CCP2-SP): 0 | Ligand-pharmacophore element distance, pharmacophore element C7 (MASP-2 CCP2-SP): 0.76 | Ligand-pharmacophore element distance, pharmacophore element CA1 (MASP-2 CCP2-SP): 1.55 | Ligand-pharmacophore element distance, pharmacophore element CA2 (MASP-2 CCP2-SP): 0.17 | Ligand-pharmacophore element distance, pharmacophore element CA3 (MASP-2 CCP2-SP): 0 | Ligand-pharmacophore element distance, pharmacophore element CA4 (MASP-2 CCP2-SP): 0 | Ligand-pharmacophore element distance, pharmacophore element CA5 (MASP-2 CCP2-SP): 0 | Ligand-pharmacophore element distance, pharmacophore element CA6 (MASP-2 CCP2-SP): 0 | d(CA1,C5) (MASP-2 CCP2-SP; [1]): 3.13 | d(CA1,O1) (MASP-2 CCP2-SP; [1]): 4.60 | d(CA1,O2) (MASP-2 CCP2-SP; [1]): 4.57 | d(CA1,O4) (MASP-2 CCP2-SP; [1]): 2.74 | d(H4,O1) (MASP-2 CCP2-SP; [1]): 3.15 | d(H4,O2) (MASP-2 CCP2-SP; [1]): 3.80 | d(O1,O2) (MASP-2 CCP2-SP; [1]): 3.17 | d(O4,H2) (MASP-2 CCP2-SP; [1]): 0.98 | d(N2,CA2) (MASP-2 CCP2-SP): 6.14 | d(O2,H3) (MASP-2 CCP2-SP): 2.09 | d(O2,N2) (MASP-2 CCP2-SP): 2.81 | a(C5, CA1, O1) (MASP-2 CCP2-SP; Table A6-1 pharmacophore angle): 161.35 | a(CA1, O1, O2) (MASP-2 CCP2-SP; Table A6-1 pharmacophore angle): 109.57 | a(CA1, O4, H2) (MASP-2 CCP2-SP; Table A6-1 pharmacophore angle): 127.11 | a(O1, CA1, C7) (MASP-2 CCP2-SP; Table A6-1 pharmacophore angle): 121.00 | a(O1, CA1, O4) (MASP-2 CCP2-SP; Table A6-1 pharmacophore angle): 66.49 | a(O1, O2, H4) (MASP-2 CCP2-SP; Table A6-1 pharmacophore angle): 126.83 | a(O1, O2, H3) (MASP-2 CCP2-SP): 129.22 | a(O1, O2, N2) (MASP-2 CCP2-SP): 142.81 | a(O2, N2, CA2) (MASP-2 CCP2-SP): 155.37 | Pharmacophore torsion angle a(C5, CA1, O1, H4) (MASP-2 CCP2-SP; [2]): −6.78 | Pharmacophore torsion angle a(C7, CA1, O1, H4) (MASP-2 CCP2-SP; [2]): −161.01 | Pharmacophore torsion angle a(H4, O1, O2, H3) (MASP-2 CCP2-SP; [2]): −163.22 | Pharmacophore torsion angle a(H4, O1, O2, N2) (MASP-2 CCP2-SP; [2]): −170.13 | Pharmacophore torsion angle a(O1, H4, O2, CA1) (MASP-2 CCP2-SP; [2]): −88.47 | Pharmacophore torsion angle a(O1, O2, N2, CA2) (MASP-2 CCP2-SP; [3]): 138.35 | IC50 (Lectin Pathway): 50 to 500 nM

Cc1nc(N)ccc1CNC(=O)[C@H](C)NC(=O)[C@H]1C[C@H](Cc2ccccc2)CN1 [compound 1304, (2R,4S)—N—((S)-1-(((6-Amino-2-methylpyridin-3-yl)methyl)amino)-1-oxopropan-2-yl)-4-benzylpyrrolidine-2-carboxamide]
H-bond distance to MASP-2 ASP 627 atom OD2 (MASP-2 CCP2-SP; Table A1 (H-Bonds), ASP 627 OD2): 3.17 | H-bond distance to MASP-2 GLY 656 atom N (MASP-2 CCP2-SP; Table A1 (H-Bonds)): 3.2 | H-bond distance to MASP-2 GLY 656 atom O (MASP-2 CCP2-SP; Table A1 (H-Bonds)): 2.81 | H-bond distance to MASP-2 SER 628 atom O (MASP-2 CCP2-SP; Table A1 (H-Bonds), SER 628 O): 3.18 | H-bond distance to MASP-2 SER 654 atom O (MASP-2 CCP2-SP; Table A1 (H-Bonds)): 2.97 | H-bond distance to MASP-2 SER 657 atom O (MASP-2 CCP2-SP; Table A1 (H-Bonds), SER 657 O): 2.96 | van der Waals contact distance, MASP-2 HIS 483 atom CD2 (MASP-2 CCP2-SP; Table A2-1): 3.71 | van der Waals contact distance, MASP-2 HIS 483 atom NE2 (MASP-2 CCP2-SP; Table A2-1): 3.65 | van der Waals contact distance, MASP-2 GLY 528 atom CA (MASP-2 CCP2-SP): 3.79 | van der Waals contact distance, MASP-2 PHE 529 atom CD2 (MASP-2 CCP2-SP; Table A2-3): 3.79 | van der Waals contact distance, MASP-2 PHE 529 atom CE2 (MASP-2 CCP2-SP; Table A2-3): 3.84 | van der Waals contact distance, MASP-2 TYR 607 atom CD1 (MASP-2 CCP2-SP): 3.78 | van der Waals contact distance, MASP-2 amino acid atom to compound atom (MASP-2 CCP2-SP; Table A2-7: SER 628 (CB, O, OG)): 3.65 | van der Waals contact distance, VAL 653 CG1 to compound atom (MASP-2 CCP2-SP; Table A2-11): 3.27 | van der Waals contact distance, TRP 655 CA to compound atom (MASP-2 CCP2-SP; Table A2-12): 3.42 | van der Waals contact distance TRP 655 atom CE3 (MASP-2 CCP2-SP): 3.78 | van der Waals contact distance TRP 655 atom CZ3 (MASP-2 CCP2-SP): 3.68 | van der Waals contact distance, MASP-2 amino acid atom to compound atom (MASP-2 CCP2-SP; Table A2 section before Table A2-8): 3.81 | Ligand-pharmacophore element distance, pharmacophore element C2 (MASP-2 CCP2-SP): 0 | Ligand-pharmacophore element distance, pharmacophore element C3 (MASP-2 CCP2-SP): 0.09 | Ligand-pharmacophore element distance, pharmacophore element C4 (MASP-2 CCP2-SP): 0 | Ligand-pharmacophore element distance, pharmacophore element C5 (MASP-2 CCP2-SP): 0 | Ligand-pharmacophore element distance, pharmacophore element C6 (MASP-2 CCP2-SP): 0 | Ligand-pharmacophore element distance, pharmacophore element C7 (MASP-2 CCP2-SP): 0 | Ligand-pharmacophore element distance, pharmacophore element CA1 (MASP-2 CCP2-SP): 0.56 | Ligand-pharmacophore element distance, pharmacophore element CA2 (MASP-2 CCP2-SP): 0.23 | Ligand-pharmacophore element distance, pharmacophore element CA3 (MASP-2 CCP2-SP): 0 | Ligand-pharmacophore element distance, pharmacophore element CA4 (MASP-2 CCP2-SP): 0 | Ligand-pharmacophore element distance, pharmacophore element CA5 (MASP-2 CCP2-SP): 0 | Ligand-pharmacophore element distance, pharmacophore element CA6 (MASP-2 CCP2-SP): 0 | d(C3,CA1) (MASP-2 CCP2-SP; [1]): 2.84 | d(CA1,N1)2 (MASP-2 CCP2-SP; [1]): 1.38 | d(CA1,O1) (MASP-2 CCP2-SP; [1]): 4.39 | d(CA1,O2) (MASP-2 CCP2-SP; [1]): 3.89 | d(H4,O1) (MASP-2 CCP2-SP; [1]): 4.40 | d(H4,O2) (MASP-2 CCP2-SP; [1]): 3.85 | d(O1,O2) (MASP-2 CCP2-SP; [1]): 3.37 | d(N2,CA2) (MASP-2 CCP2-SP): 5.96 | d(O2,H3) (MASP-2 CCP2-SP): 4.37 | d(O2,N2) (MASP-2 CCP2-SP): 2.62 | a(C3, CA1, O1) (MASP-2 CCP2-SP; Table A6-1 pharmacophore angle): 149.82 | a(CA1, O1, O2) (MASP-2 CCP2-SP; Table A6-1 pharmacophore angle): 105.87 | a(O1, O2, H4) (MASP-2 CCP2-SP; Table A6-1 pharmacophore angle): 132.43 | a(N1, CA1, O1) b) (MASP-2 CCP2-SP; Table A6-1 pharmacophore angle, Methyl-amino-pyridine compounds): 173.92 | a(O1, O2, H3) (MASP-2 CCP2-SP): 147.16 | a(O1, O2, N2) (MASP-2 CCP2-SP): 139.74 | a(O2, N2, CA2) (MASP-2 CCP2-SP): 156.83 | Pharmacophore torsion angle a(C3, CA1, O1, H4) (MASP-2 CCP2-SP; [2]): 24.93 | Pharmacophore torsion angle a(H4, O1, O2, H3) (MASP-2 CCP2-SP; [2]): 49.79 | Pharmacophore torsion angle a(H4, O1, O2, N2) (MASP-2 CCP2-SP; [2]): 138.09 | Pharmacophore torsion angle a(N1, CA1, O1, H4) (MASP-2 CCP2-SP; [2]): 5.90 | Pharmacophore torsion angle a(O1, H4, O2, CA1) (MASP-2 CCP2-SP; [2]): −84.58 | Pharmacophore torsion angle a(O1, O2, N2, CA2) (MASP-2 CCP2-SP; [3]): 125.90 | IC50 (Lectin Pathway): 50 to 500 nM
